# Laboratory results taken from article PMC12316891, “A bottom-up approach to find lead compounds in expansive chemical spaces” (Communications Chemistry, 2025).
# Where two headings read alike, the source gives them in different places.
# Columns and labels:
# His6-BRD4 (BD1) = biological target: T1, His6-BRD4 (BD1) (Homo sapiens, UniProt O60885); experiment: Surface plasmon resonance (SPR) single-dose screening; format: binding; set-up: key to SPR RESULT: Positive: compounds were considered as SPR hits also when their average signal was further than two standard deviations apart from the average signal of the blank samples (1% DMSO); conditions: for RUs at [10 µM]: SPR, compound 10 µM, 1% DMSO, n = 2, decimal comma; for SPR RESULT: single dose 10 µM, n = 2
# T1 construct: A pET28 plasmid containing residues 44–168 of BRD4 (BD1), a 6xHis tag, a TEV protease cleavage site; made in house; host or cells: E. coli Rosetta (D3)
# BRD4 (BD1) [1] = biological target: T2, BRD4 (BD1) (Homo sapiens, UniProt O60885); experiment: Differential scanning fluorimetry (DSF) single-dose thermal shift screening; format: binding; conditions: for ΔTm at 10 µM: read-out: ΔTm ºC at [10 µM]
# T2 construct: A pET28 plasmid containing residues 44–168 of BRD4 (BD1), a 6xHis tag, a TEV protease cleavage site; 6xHis (N, cleaved yes); made in house; host or cells: E. coli Rosetta (D3)
# BRD4 (BD1) [2] = biological target: T2, BRD4 (BD1); experiment: Competitive HTRF TR-FRET binding assay (displacement of acetylated histone H4 peptide)
# Method: To further quantitatively characterize the DSF/SPR hits compounds obtained in the single-dose screenings, we selected HTRF TR-FRET. Specifically, we employed a competitive HTRF TR-FRET experiment to measure the compound’s capacity to displace an acetylated peptide from the binding site of BRD4 (BD1). For each molecule, a 16-point concentration curve was titrated against the peptide-BRD (BD1) complex and incubated for 1.5 h. A compound was considered a positive binder if we could fit its titration curve to a sigmoidal curve to determine its IC50. […] Compound screening was carried out in 384-well, white, round-bottom, small-volume plates (CORNING) in a final volume of 20 µL of 50 mM HEPES (pH 7.4), 50 mM NaCl, 400 mM KF, 0.5 mM CHAPS, and 0.05% BSA. […] Then, the labeled anti-His6-XL665 antibody (CisBio) (10 nM) was added to the mixture and incubated for 15 min, before the Eu3+ cryptate-conjugated streptavidin (2 nM) (CisBio) was added and incubated for 15 min. All incubations were performed at room temperature. […] Titration of (+)−JQ1 was used as a positive control for each experiment.
# [3] = DSF, compound 10 µM, BRD4 (BD1) 2 µM, n = 3, decimal comma
# [4] = 16-point titration 0.1 nM to 10 µM, n = 2, Negative = curve could not be fitted to a sigmoidal curve
# [5] = 16-point titration 0.1 nM to 10 µM, n = 2, Negative = curve could not be fitted to a sigmoidal curve, read-out: TR-FRET IC50
SMILES,RUs at [10 µM] (His6-BRD4 (BD1)),ΔTm at 10 µM (BRD4 (BD1) [1]; [3]) [°C],SPR RESULT (His6-BRD4 (BD1)),TR-FRET IC50 (nM) (BRD4 (BD1) [2]; [4]),IC50 (BRD4 (BD1) [2]; [5]) [nM],ΔTm ºC at [10 µM] (BRD4 (BD1) [1]; [3]),"IC50 by HTRF TR-FRET, range in words (BRD4 (BD1) [2]; potency range or dose-response behaviour)",IC50 (BRD4 (BD1) [2]) [nM],ΔTm at 10 µM (BRD4 (BD1) [1]) [°C]
"COc1cc2c(cc1-c1c(C)noc1C)ncc1[nH]c(=O)n([C@H](C)c3ccccn3)c12 [Compound 2, CC1=C(C(=NO1)C)C2=C(C=C3C(=C2)N=CC4=C3N(C(=O)N4)C(C)C5=CC=CC=N5)OC, reference compound]","95,35 ± 25,76 RUs",–,–,–,–,–,–,–,–
"CCn1nnc2cc(C(=O)N3C[C@@H](OC(C)=O)[C@@H](n4cc(CN5CCC(O)CC5)nn4)C3)ccc21 [Compound 95, CCN1N=NC=2C=C(C=CC12)C(=O)N3C[C@@H](OC(=O)C)[C@H](C3)N4C=C(CN5CCC(O)CC5)N=N4]","14,42 ± 2,9 RUs",0.19,Positive,Negative,–,–,–,–,–
"COC1CC(CCC(=O)NC2CC3(CCN(C(=O)c4occc4Br)C3)Oc3ccccc32)C1 (stereo not drawn) [Compound 62, COC1CC(CCC(=O)NC2CC3(CCN(C3)C(=O)C=4OC=CC4Br)OC=5C=CC=CC25)C1]","23,54 ± 4,84 RUs",-0.15,Positive,Negative,–,–,–,–,–
"COC(=O)C1(NCC(=O)Nc2nnc(C)s2)CC(C)(C)OC(C)(C)C1 [Compound 92, COC(=O)C1(CC(C)(C)OC(C)(C)C1)NCC(=O)NC2=NN=C(C)S2]","8,96 ± 1,15 RUs",1.04,Negative,–,622,–,–,–,–
"COc1cccc(-n2c(C)nnc2SCC(=O)N2CC3CCC2CN3C(=O)c2ccns2)c1 (stereo not drawn) [Compound 35, COC=1C=CC=C(C1)N2C(C)=NN=C2SCC(=O)N3CC4CCC3CN4C(=O)C5=CC=NS5]","13,78 ± 5,32 RUs",0.69,Negative,–,1070,–,–,–,–
"CNC(=O)C1(C(=O)N[C@@H]2CCCC[C@H]2NC(=O)c2cnsn2)CCC1 [Compound 65, CNC(=O)C1(CCC1)C(=O)N[C@@H]2CCCC[C@H]2NC(=O)C=3C=NSN3]","7,82 ± 0,92 RUs",0.32,Negative,–,28.7,–,–,–,–
"COc1ccc(-n2c(C)nnc2SCC(=O)NCc2ccc(F)c(C)c2)cc1 [Compound 19, COC=1C=CC(=CC1)N2C(C)=NN=C2SCC(=O)NCC=3C=CC(F)=C(C)C3]","33,98 ± 20,29 RUs",1.36,Negative,–,543,–,–,–,–
"Cc1nnc(NC(=O)CCC(=O)N2Cc3ccccc3OC3(CCOC3)C2)s1 (stereo not drawn) [Compound 76, CC1=NN=C(NC(=O)CCC(=O)N2CC=3C=CC=CC3OC4(CCOC4)C2)S1]","25 ± 11,77 RUs",2.11,Negative,–,405,–,–,–,–
"Cc1nc(=O)c(CCC(=O)NC2CC(O)(Cn3cc(-c4cnn(C)c4C)nn3)C2)c[nH]1 (stereo not drawn) [Compound 81, CC1=C(C=NN1C)C2=CN(CC3(O)CC(C3)NC(=O)CCC4=CNC(C)=NC4=O)N=N2]","11,5 ± 1,85 RUs",-0.15,Positive,–,26.4,–,–,–,–
"COc1ccc(-n2c(C)nnc2SCC(=O)Nc2ccc(C)c(Cl)c2Cl)cc1 [Compound 12, COC=1C=CC(=CC1)N2C(C)=NN=C2SCC(=O)NC=3C=CC(C)=C(Cl)C3Cl]","78,35 ± 18,49 RUs",–,Positive,Negative,–,"-0,57 ± 0,38 ºC",–,–,–
"Cc1cc(C)n2nc(NC(=O)NCCOC3(C)CCOCC3)nc2n1 [Compound 71, CC=1C=C(C)N2N=C(NC(=O)NCCOC3(C)CCOCC3)N=C2N1]","11,01 ± 0,31 RUs",0.79,Positive,–,71.4,–,–,–,–
"Cc1cc(C)n2c(CNc3ccc(C)c(NC(=O)CN4CCCCC4)c3)cnc2n1 [Compound 67, CC=1C=C(C)N2C(CNC=3C=CC(C)=C(NC(=O)CN4CCCCC4)C3)=CN=C2N1]","28,42 ± 2,09 RUs",0.81,Positive,–,3.72,–,low nM,–,–
"COc1ccc(-n2c(C)nnc2SCC(=O)NCc2cc(C)nc(C)c2)cc1 [Compound 44, COC=1C=CC(=CC1)N2C(C)=NN=C2SCC(=O)NCC=3C=C(C)N=C(C)C3]","17,34 ± 14,82 RUs",1.68,Negative,–,5.83,–,–,–,–
"Cc1ncc(CNC(=O)c2c(-c3ccccc3)nn3ccccc23)c(O)n1 [Compound 75, CC=1N=CC(CNC(=O)C=2C(=NN3C=CC=CC23)C=4C=CC=CC4)=C(O)N1]","14,74 ± 1,95 RUs",1.2,Positive,Negative,–,–,–,–,–
"COc1cccc(-n2c(C)nnc2SCC(=O)N2CCCN(C(=O)c3cc(F)c[nH]3)CC2)c1 [Compound 30, COC=1C=CC=C(C1)N2C(C)=NN=C2SCC(=O)N3CCCN(CC3)C(=O)C4=CC(F)=CN4]","17,68 ± 18,73 RUs",0.43,Negative,Negative,–,–,–,–,–
"COc1ccc(-n2c(C)nnc2SCC(=O)Nc2ccc(C)c(Cl)c2Cl)cc1 [Compound 55, COC=1C=CC(=CC1)N2C(C)=NN=C2SCC(=O)NC=3C=CC(C)=C(Cl)C3Cl]","11,56 ± 1,14 RUs",–,Positive,–,–,"3,66 ± 0,12 ºC",–,1020,–
"COc1ccc(CNc2ccc3ccn(C)c(=O)c3c2)cc1OCC(C)C [Compound 38, COC=1C=CC(CNC=2C=CC=3C=CN(C)C(=O)C3C2)=CC1OCC(C)C]","30,29 ± 13,03 RUs",0.25,Negative,Negative,–,–,–,–,–
"Cc1nnc(NC(=O)NCc2cccc(C(=O)NCC3CCCO3)c2)s1 (stereo not drawn) [Compound 73, CC1=NN=C(NC(=O)NCC=2C=CC=C(C2)C(=O)NCC3CCCO3)S1]","23,59 ± 6,69 RUs",1.13,Positive,–,10700,–,–,–,–
"COc1ccc(-n2c(C)nnc2SCC(=O)NC2CCC3(CNC3)C2)cc1 (stereo not drawn) [Compound 49, COC=1C=CC(=CC1)N2C(C)=NN=C2SCC(=O)NC3CCC4(CNC4)C3]","17,72 ± 5,47 RUs",2.73,Negative,–,105,–,–,–,–
"CC(NC(=O)CC1(C)CCCO1)C1(O)CN(C(=O)c2nsnc2O)C1 (stereo not drawn) [Compound 89, CC(NC(=O)CC1(C)CCCO1)C2(O)CN(C2)C(=O)C3=NSN=C3O]","-1,39 ± 0,54 RUs",0.19,Negative,–,155,–,–,–,–
"Cn1ccnc1C1CCN(C(=O)c2nn(C)c(=O)c3ccccc23)C1 (stereo not drawn) [Compound 13, CN1C=CN=C1C2CCN(C2)C(=O)C3=NN(C)C(=O)C=4C=CC=CC34]","5,53 ± 2,74 RUs",0.45,Negative,–,1.46,–,–,–,–
"CCOc1ccc(-c2cn(C3CC(NC(=O)c4cc(C)nc5ncnn45)C3)nn2)cc1F (stereo not drawn) [Compound 82, CCOC=1C=CC(=CC1F)C2=CN(N=N2)C3CC(C3)NC(=O)C4=CC(C)=NC5=NC=NN45]","38,3 ± 6,87 RUs",-0.24,Positive,–,29.7,–,–,–,–
"CCCc1c(C(=O)N2CCC(Cc3cn(C4CC4)nn3)CC2)[nH]c(C)c1C(C)=O [Compound 54, CCCC1=C(NC(C)=C1C(=O)C)C(=O)N2CCC(CC3=CN(N=N3)C4CC4)CC2]","17,03 ± 5,1 RUs",2.91,Negative,–,277,–,–,–,–
"Cc1nnc2sc(C(=O)N3CCC4(CCC(NC(=O)Cc5csc(Cl)c5)CC4)CC3)c(N)c2c1C [Compound 60, CC=1N=NC=2SC(C(=O)N3CCC4(CCC(CC4)NC(=O)CC5=CSC(Cl)=C5)CC3)=C(N)C2C1C]","48,37 ± 15,77 RUs",0.94,Positive,Negative,–,–,–,–,–
"CCCc1c(C(=O)NCc2cccc3c2OCCO3)[nH]c(C)c1C(C)=O [Compound 16, CCCC1=C(NC(C)=C1C(=O)C)C(=O)NCC=2C=CC=C3OCCOC23]","20,24 ± 10,15 RUs",-0.43,Negative,–,1090,–,–,–,–
"CCCc1c(C(=O)N2CCOC(CNC(=O)c3cc(C)ccn3)C2)[nH]c(C)c1C(C)=O (stereo not drawn) [Compound 40, CCCC1=C(NC(C)=C1C(=O)C)C(=O)N2CCOC(CNC(=O)C=3C=C(C)C=CN3)C2]","9,46 ± 0,53 RUs",1.13,Positive,–,372,–,–,–,–
"COc1ccc(C2(NCC(=O)Nc3cc(-n4nnnc4C)ccc3F)CCOCC2)cc1 [Compound 18, COC=1C=CC(=CC1)C2(CCOCC2)NCC(=O)NC=3C=C(C=CC3F)N4N=NN=C4C]","2,91 ± 1,98 RUs",-0.7,Negative,–,1140,–,–,–,–
"Cc1sc2c(c1C)C(c1ccc(Cl)cc1)=NC(CC(=O)OC(C)(C)C)c1nnc(C)n1-2 (stereo not drawn) [Compound 3, CC1=C(SC2=C1C(=NC(C3=NN=C(N32)C)CC(=O)OC(C)(C)C)C4=CC=C(C=C4)Cl)C, reference compound]","99,15 ± 6,82 RUs",–,–,–,–,–,–,–,9.28
"Cc1cc(C)n2nc(NC(=O)N3CCC(F)(F)C4(CCOC4)C3)nc2n1 (stereo not drawn) [Compound 68, CC=1C=C(C)N2N=C(NC(=O)N3CCC(F)(F)C4(CCOC4)C3)N=C2N1]","9,66 ± 4,71 RUs",1.11,Negative,–,–,–,–,–,–
